The values that follow come from patent US10954193B2 (Vanderbilt University, priority 2013, dated 2021).

For this assay, the target named is recombinant Mcl-1 (residues 172-327) (Homo sapiens (Human), UniProt Q07820). As to the kind of experiment: Bak peptide binding assay, fluorescence polarization anisotropy competition (FITC-Bak), Mcl-1.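 Also: displacement of labeled Bak peptide read by fluorescence anisotropy, 10-point threefold dilutions from 20 µM top dose in 5% DMSO, 90 min incubation at room temperature.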 The conditions noted are these: Table 3, binned ranges; FITC-Bak peptide 10 nM, Mcl-1 14 nM; read-out: Ki for inhibition of Mcl-1.
Chain of recombinant Mcl-1 (residues 172-327) (Q07820 172-327): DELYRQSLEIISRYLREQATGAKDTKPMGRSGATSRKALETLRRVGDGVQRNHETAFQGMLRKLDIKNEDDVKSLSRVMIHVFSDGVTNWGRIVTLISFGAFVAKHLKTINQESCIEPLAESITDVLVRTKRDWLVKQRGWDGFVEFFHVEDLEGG

As usually defined, the Ki is a measure of affinity in units of concentration, obtained from inhibition or displacement.

Regarding `Cc1cc(OCCCc2c(C)n(CCC(=O)NS(=O)(=O)c3ccccc3[N+](=O)[O-])c3c(-c4c(C)nn(C)c4C)cccc23)cc(C)c1Cl` [Example 91, 3-(3-(3-(4-chloro-3,5-dimethylphenoxy)propyl)-2-methyl-7-(1,3,5-trimethyl-1H-pyrazol-4-yl)-1H-indol-1-yl)-N-((2-nitrophenyl)sulfonyl)propanamide], the inhibitory constant (Ki) is no more than 0.1 µM.

For the molecule `Cc1cc(OCCCc2c(C)n(CCC(=O)NS(=O)(=O)c3cccc([N+](=O)[O-])c3)c3c(-c4c(C)nn(C)c4C)cccc23)cc(C)c1Cl` [Example 92, 3-(3-(3-(4-chloro-3,5-dimethylphenoxy)propyl)-2-methyl-7-(1,3,5-trimethyl-1H-pyrazol-4-yl)-1H-indol-1-yl)-N-((3-nitrophenyl)sulfonyl)propanamide], the Ki was no more than 0.1 µM.

As for `Cc1cc(OCCCc2c(C)n(CCC(=O)NS(=O)(=O)c3ccc([N+](=O)[O-])cc3)c3c(-c4c(C)nn(C)c4C)cccc23)cc(C)c1Cl` [Example 93, 3-(3-(3-(4-chloro-3,5-dimethylphenoxy)propyl)-2-methyl-7-(1,3,5-trimethyl-1H-pyrazol-4-yl)-1H-indol-1-yl)-N-((4-nitrophenyl)sulfonyl)propanamide], the inhibition constant Ki was no more than 0.1 µM.

Turning to `Cc1cc(OCCCc2c(C)n(CCC(=O)NS(=O)(=O)c3ccccn3)c3c(-c4c(C)nn(C)c4C)cccc23)cc(C)c1Cl` [Example 94, 3-(3-(3-(4-chloro-3,5-dimethylphenoxy)propyl)-2-methyl-7-(1,3,5-trimethyl-1H-pyrazol-4-yl)-1H-indol-1-yl)-N-(pyridin-2-ylsulfonyl)propanamide], the Ki is no more than 0.1 µM.

In the case of `Cc1cc(OCCCc2c(C)n(CCC(=O)NS(=O)(=O)c3cccnc3)c3c(-c4c(C)nn(C)c4C)cccc23)cc(C)c1Cl` [Example 95, 3-(3-(3-(4-chloro-3,5-dimethylphenoxy)propyl)-2-methyl-7-(1,3,5-trimethyl-1H-pyrazol-4-yl)-1H-indol-1-yl)-N-(pyridin-3-ylsulfonyl)propanamide], the Ki was no more than 0.1 µM.

As to `Cc1cc(OCCCc2c(C)n(CCC(=O)NS(=O)(=O)c3ccncc3)c3c(-c4c(C)nn(C)c4C)cccc23)cc(C)c1Cl` [Example 96, 3-(3-(3-(4-chloro-3,5-dimethylphenoxy)propyl)-2-methyl-7-(1,3,5-trimethyl-1H-pyrazol-4-yl)-1H-indol-1-yl)-N-(pyridin-4-ylsulfonyl)propanamide], the Ki is no more than 0.1 µM.

Consider `Cc1cc(OCCCc2c(C)n(Cc3ccccc3C(=O)O)c3c(-c4c(C)n[nH]c4C)cccc23)cc(C)c1Cl` [Example 97, 2-((3-(3-(4-chloro-3,5-dimethylphenoxy)propyl)-7-(3,5-dimethyl-1H-pyrazol-4-yl)-2-methyl-1H-indol-1-yl)methyl)benzoic acid], for which the Ki lay within 1 to 9.99 µM.

On to `Cc1cc(OCCCc2c(C)n(Cc3ccc(C(=O)O)cc3)c3c(-c4c(C)n[nH]c4C)cccc23)cc(C)c1Cl` [Example 98, 4-((3-(3-(4-chloro-3,5-dimethylphenoxy)propyl)-7-(3,5-dimethyl-1H-pyrazol-4-yl)-2-methyl-1H-indol-1-yl)methyl)benzoic acid], for which the Ki was no more than 0.1 µM.

Take `Cc1cc(OCCCc2c(C)n(Cc3cccc(C(=O)O)c3)c3c(-c4c(C)nn(C)c4C)c(Cl)ccc23)cc(C)c1Cl` [Example 102, 3-((6-chloro-3-(3-(4-chloro-3,5-dimethylphenoxy)propyl)-2-methyl-7-(1,3,5-trimethyl-1H-pyrazol-4-yl)-1H-indol-1-yl)methyl)benzoic acid]: the Ki was no more than 0.1 µM.

Regarding `Cc1cc(OCCCc2c(C)n(Cc3ccc(CC(=O)O)cc3)c3c(-c4c(C)nn(C)c4C)c(Cl)ccc23)cc(C)c1Cl` [Example 103, 2-(4-((6-chloro-3-(3-(4-chloro-3,5-dimethylphenoxy)propyl)-2-methyl-7-(1,3,5-trimethyl-1H-pyrazol-4-yl)-1H-indol-1-yl)methyl)phenyl)acetic acid], the Ki was no more than 0.1 µM.

On to `Cc1cc(OCCCc2c(C)n(CCC(=O)O)c3c(-c4c(C)nn(Cc5ccccn5)c4C)cccc23)cc(C)c1Cl` [Example 105, 3-(3-(3-(4-chloro-3,5-dimethylphenoxy)propyl)-7-(3,5-dimethyl-1-(pyridin-2-ylmethyl)-1H-pyrazol-4-yl)-2-methyl-1H-indol-1-yl)propanoic acid], for which the Ki is no more than 0.1 µM.

On to `Cc1cc(OCCCc2c(C)n(CCC(=O)O)c3c(-c4c(C)nn(CC5CCOC5)c4C)cccc23)cc(C)c1Cl` (centres unmarked) [Example 106, 3-(3-(3-(4-chloro-3,5-dimethylphenoxy)propyl)-7-(3,5-dimethyl-1-((tetrahydrofuran-3-yl)methyl)-1H-pyrazol-4-yl)-2-methyl-1H-indol-1-yl)propanoic acid], for which the Ki is no more than 0.1 µM.

As to `Cc1cc(OCCCc2c(C)n(CCC(=O)O)c3c(-c4c(C)nn(CCN(C)C)c4C)cccc23)cc(C)c1Cl` [Example 109, 3-(3-(3-(4-chloro-3,5-dimethylphenoxy)propyl)-7-(1-(2-(dimethylamino)ethyl)-3,5-dimethyl-1H-pyrazol-4-yl)-2-methyl-1H-indol-1-yl)propanoic acid], the Ki was in the range of 0.301 to 0.5 µM.

As for `Cc1cc(OCCCc2c(C)n(CCC(=O)O)c3c(-c4c(C)nn(Cc5ncccn5)c4C)cccc23)cc(C)c1Cl` [Example 110, 3-(3-(3-(4-chloro-3,5-dimethylphenoxy)propyl)-7-(3,5-dimethyl-1-(pyrimidin-2-ylmethyl)-1H-pyrazol-4-yl)-2-methyl-1H-indol-1-yl)propanoic acid], the Ki lay in the range of 1 to 9.99 µM.

In the case of `Cc1cc(OCCCc2c(C)n(Cc3cccc(C(=O)O)c3)c3c(-c4c(C)nn(Cc5ccccn5)c4C)cccc23)cc(C)c1Cl` [Example 111, 3-((3-(3-(4-chloro-3,5-dimethylphenoxy)propyl)-7-(3,5-dimethyl-1-(pyridin-2-ylmethyl)-1H-pyrazol-4-yl)-2-methyl-1H-indol-1-yl)methyl)benzoic acid], the Ki was no more than 0.1 µM.

Take `Cc1cc(OCCCc2c(C)n(Cc3cccc(C(=O)O)c3)c3c(-c4c(C)nn(Cc5cccnc5)c4C)cccc23)cc(C)c1Cl` [Example 112, 3-((3-(3-(4-chloro-3,5-dimethylphenoxy)propyl)-7-(3,5-dimethyl-1-(pyridin-3-ylmethyl)-1H-pyrazol-4-yl)-2-methyl-1H-indol-1-yl)methyl)benzoic acid]: the Ki was in the range of 0.501 to 0.999 µM.

With `Cc1cc(OCCCc2c(C)n(CCC(=O)O)c3c(-c4c(C)nn(CCN5CCOCC5)c4C)c(Cl)ccc23)cc(C)c1Cl` [Example 113, 3-(6-chloro-3-(3-(4-chloro-3,5-dimethylphenoxy)propyl)-7-(3,5-dimethyl-1-(2-morpholinoethyl)-1H-pyrazol-4-yl)-2-methyl-1H-indol-1-yl)propanoic acid], the inhibition constant (Ki) was no more than 0.1 µM.

As for `Cc1cc(OCCCc2c(C)n(CC(=O)O)c3c(-c4c(C)nn(C)c4C)c(Cl)ccc23)cc(C)c1Cl` [Example 114, 2-(6-chloro-3-(3-(4-chloro-3,5-dimethylphenoxy)propyl)-2-methyl-7-(1,3,5-trimethyl-1H-pyrazol-4-yl)-1H-indol-1-yl)acetic acid], the Ki was no more than 0.1 µM.

For the molecule `Cc1cc(OCCCc2c(C(F)(F)F)n(Cc3cccc(C(=O)O)c3)c3c(Br)cccc23)cc(C)c1Cl` [Example 115, 3-((7-bromo-3-(3-(4-chloro-3,5-dimethylphenoxy)propyl)-2-(trifluoromethyl)-1H-indol-1-yl)methyl)benzoic acid], the Ki fell in the range of 0.101 to 0.299 µM.

Consider `Cc1cc(OCCCc2c(C(F)(F)F)n(Cc3ccc(C(=O)O)cc3)c3c(Br)cccc23)cc(C)c1Cl` [Example 116, 4-((7-bromo-3-(3-(4-chloro-3,5-dimethylphenoxy)propyl)-2-(trifluoromethyl)-1H-indol-1-yl)methyl)benzoic acid], for which the Ki lay in the range of 0.101 to 0.299 µM.

Consider `Cc1cc(OCCCc2c(C(F)(F)F)n(CCc3ccc(C(=O)O)cc3)c3c(-c4c(C)nn(C)c4C)cccc23)cc(C)c1Cl` [Example 118, 4-(2-(3-(3-(4-chloro-3,5-dimethylphenoxy)propyl)-2-(trifluoromethyl)-7-(1,3,5-trimethyl-1H-pyrazol-4-yl)-1H-indol-1-yl)ethyl)benzoic acid], for which the Ki was no more than 0.1 µM.

Turning to `Cc1cc(OCCCc2c(C(F)(F)F)n(Cc3ccc(C(=O)O)cn3)c3c(Br)cccc23)cc(C)c1Cl` [Example 119, 6-((7-bromo-3-(3-(4-chloro-3,5-dimethylphenoxy)propyl)-2-(trifluoromethyl)-1H-indol-1-yl)methyl)nicotinic acid], the Ki lay in the range of 1 to 9.99 µM.

Take `Cc1cc(OCCCc2c(C(F)(F)F)n(CC(=O)O)c3c(-c4c(C)nn(C)c4C)cccc23)cc(C)c1Cl` [Example 120, 2-(3-(3-(4-chloro-3,5-dimethylphenoxy)propyl)-2-(trifluoromethyl)-7-(1,3,5-trimethyl-1H-pyrazol-4-yl)-1H-indol-1-yl)acetic acid]: the Ki is no more than 0.1 µM.

Consider `Cc1cc(OCCCc2c(C(F)(F)F)n(CC(=O)N3CCN(CC(=O)O)CC3)c3c(-c4c(C)nn(C)c4C)cccc23)cc(C)c1Cl` [Example 121, 2-(4-(2-(3-(3-(4-chloro-3,5-dimethylphenoxy)propyl)-2-(trifluoromethyl)-7-(1,3,5-trimethyl-1H-pyrazol-4-yl)-1H-indol-1-yl)acetyl)piperazin-1-yl)acetic acid], for which the Ki is no more than 0.1 µM.

Turning to `Cc1cc(OCCCc2c(C(F)(F)F)n(Cc3cccc(C(=O)O)c3)c3c(-c4c(C)nn(C)c4C)c(Cl)ccc23)cc(C)c1Cl` [Example 122, 3-((6-chloro-3-(3-(4-chloro-3,5-dimethylphenoxy)propyl)-2-(trifluoromethyl)-7-(1,3,5-trimethyl-1H-pyrazol-4-yl)-1H-indol-1-yl)methyl)benzoic acid], the Ki is no more than 0.1 µM.

On to `Cc1cc(OCCCc2c(C(F)(F)F)n(Cc3cccc(C(=O)O)c3)c3c(-c4c(C)nn(C)c4C)cccc23)cc(C)c1Cl` [Example 123, 3-((3-(3-(4-chloro-3,5-dimethylphenoxy)propyl)-2-(trifluoromethyl)-7-(1,3,5-trimethyl-1H-pyrazol-4-yl)-1H-indol-1-yl)methyl)benzoic acid], for which the Ki is no more than 0.1 µM.
